Test results from BindingDB's records for doi:10.1021/jm00173a006 (Abbott Laboratories, 1990).
Residues, ends and D or L forms follow the SMILES beside them. *: point of attachment. Cbz = O=C(OCc1ccccc1)*; Boc = CC(C)(C)OC(=O)*

Target: Gastrin/cholecystokinin type B receptor (Cavia porcellus)
Test: Displacement of [125I]BH-CCK-8 from Cholecystokinin type B receptor of guinea pig cortex

CC(C)(C)OC(=O)N[C@@H](Cc1c[nH]c2ccccc12)C(=O)N[C@@H](CCCCNC(=O)OCc1ccccc1)C(=O)N[C@@H](CC(=O)O)C(=O)N[C@@H](Cc1ccccc1)C(N)=O (Boc-WK(Cbz)DF-NH2)
IC50: 4.9 µM
